Columns and labels:
[1] = test system: TNF-α secretion in LPS-stimulated macrophage-like THP-1 cells; assay: LPS-induced TNF-α secretion in THP-1 macrophages (ELISA); type: cell-based, human; conditions: 300 nM, 1 h pretreatment, 24 h after LPS
Method: (§1) For the determination of biological activity, we used the human monocytic leukaemia cell line THP-1 (ECACC, Salisbury, UK). The cells were cultivated at 37°C in the RPMI 1640 medium supplemented with 2 mM L-glutamine, 10% FBS, 100 U/mL of penicillin and 100 µg/mL of streptomycin in a humidified atmosphere containing 5% CO2. Stabilized cells (3rd–15th passage) were split into microtitration plates to get a concentration of 500 000 cells/mL and the differentiation to macrophages was induced by phorbol myristate acetate (PMA) dissolved in dimethyl sulfoxide (DMSO) at the final concentration of 50 ng/ml, and the cells were incubated for 24 h. In comparison with monocytes, differentiated macrophages tend to adhere to the bottoms of the cultivation plates. For next 24 h the cells were incubated with a fresh complete RPMI medium, i.e. containing antibiotics and FBS, without PMA. The medium was then aspirated, and the cells were washed with PBS and cultivated for next 24 hours in serum-free RPMI 1640 medium. These prepared macrophages were used for the detection of inflammatory response.
(§2) Differentiated macrophages were pretreated with 300 nM solutions of the tested complexes, HLn, AuCl, [AuCl(PPh3)], PPh3 and Auranofin dissolved in DMSO (the final DMSO concentration was 0.1%) and with 0.1% DMSO solution itself (vehicle) for 1 h; the given concentrations of the tested compounds lack the cytotoxic effect (cell viability >94%) based on the results of WST-1 test. The inflammatory response in pretreated macrophages was triggered by the addition of 1.0 µg/mL lipopolysaccharide (LPS) dissolved in water, while the control cells (CTRL) remained without the LPS treatment.
(§3) Macrophages, which were pretreated with the tested compounds (complexes 1–5, HLn, AuCl, [AuCl(PPh3)], PPh3 and Auranofin) for 1 h, were incubated with LPS for next 24 h. After this period, the medium was collected and the concentration of TNF-α, and IL-1β was determined by the Instant ELISA Kit according to the manufactures' manual.
(§4) The statistically significant differences between individual groups during anti- inflammatory testing were evaluated using a one-way ANOVA test for statistical analysis, followed by Tukey's post-hoc test for multiple comparisons. GraphPad Prism 5.02 (GraphPad Software Inc., San Diego, CA, USA) was used to perform the analysis. The results are presented as arithmetic means±S.E. values.

[2] = test system: IL-1β secretion in LPS-stimulated macrophage-like THP-1 cells; assay: LPS-induced IL-1β secretion in THP-1 macrophages (ELISA); type: cell-based, human; conditions: 300 nM, 1 h pretreatment, 24 h after LPS
Method: as §1, §2, §3, §4

[3] = test system: A549 lung carcinoma cells; assay: MTT in vitro cytotoxicity, A549; type: cell-based, human; conditions: 24 h treatment, read-out: IC50±S.E., A549
Method: (§5) In vitro cytotoxic activity was determined by the MTT assay in human breast adenocarcinoma (MCF7; ECACC no. 86012803), human osteosarcoma (HOS; ECACC no. 87070202), lung carcinoma (A549; ECACC no. 86012804), malignant melanoma (G361; ECACC no. 88030401), cervix epitheloid carcinoma (HeLa; ECACC no. 93021013), ovarian carcinoma (A2780; ECACC no. 93112519), cisplatin-resistant ovarian carcinoma (A2780R; […] ECACC no 105092802) cancer cell lines, purchased from European Collection of Cell Cultures (ECACC). […] The primary culture of human hepatocytes (HEP220, batch number HEP220819) was obtained from Biopredic International (France). The culture medium was Williams and HAM's F-12 (1∶1) supplemented with penicillin, streptomycin, ascorbic acid, linoleic acid, holo-transferin, ethanolamine, glucagon, insulin, dexamethasone, pyruvate, glucose, glutamine, amphotericin. The medium was enriched for plating with 2% foetal calf serum (v/v). The medium was exchanged for a serum-free medium the day after and the culture was stabilized for additional 24 h. Thereafter, the cells were ready for treatments. […] The MTT assay was performed spectrophotometrically at 540 nm (TECAN, Schoeller Instruments LLC). The cytotoxicity data were expressed as the percentage of viability, where 100% represented the treatments with vehicle (0.1% DMF or 0.1% DMSO). The cytotoxicity data from the cancer cell lines were acquired from three independent experiments (conducted in triplicate) using cells from different passages. The IC50 values were calculated from viability curves. The results are presented as arithmetic means±standard error of the mean (S.E.).

[4] = test system: A2780 ovarian carcinoma cells; assay: MTT in vitro cytotoxicity, A2780; type: cell-based, human; conditions: 24 h treatment, read-out: IC50±S.E., A2780
Method: as §5

[5] = test system: 22Rv1 prostate carcinoma cells; assay: MTT in vitro cytotoxicity, 22Rv1; type: cell-based, human; conditions: 24 h treatment, read-out: IC50±S.E., 22Rv1
Method: as §5

[6] = test system: MCF7 breast carcinoma cells; assay: MTT in vitro cytotoxicity, MCF7; type: cell-based, human; conditions: 24 h treatment, read-out: IC50±S.E., MCF7
Method: as §5

[7] = test system: A2780R ovarian carcinoma cells resistant to cisplatin; assay: MTT in vitro cytotoxicity, A2780R; type: cell-based, human; conditions: for IC50: 24 h treatment, MTT, read-out: IC50±S.E., A2780R
Method: as §5

[8] = test system: THP-1 monocytic leukaemia cells; assay: WST-1 in vitro cytotoxicity, THP-1; type: cell-based, human; conditions: 24 h treatment, WST-1, 0.16–10.00 µM; read-out: IC50±S.E., THP-1
Method: Before the in vitro anti-inflammatory testing, in vitro cytotoxicity on human monocytic leukaemia cells (THP-1, ECACC no. 88081201) was determined using the WST-1 assay. The THP-1 cells (floating monocytes, 500 000 cells/mL) were incubated in 100 µL of the serum-free RPMI 1640 medium and seeded into 96-well plates in triplicate at 37°C. Measurements were taken 24 h after the treatment with the tested compounds dissolved in 0.1% DMSO in the concentration range of 0.16–10.00 µM. Viability was determined by the WST-1 test according to the manufacturer's manual. The amount of the formed formazan (which correlates to the number of metabolically active cells in the culture) was calculated as a percentage of the control cells, which were treated only with 0.1% DMSO and was set-up as 100%. The IC50 values of the tested compounds were calculated from the obtained data. The WST-1 assay was performed spectrophotometrically at 440 nm (FLUOstar Omega, BMG Labtech).
The cytotoxicity data were expressed as the percentage of viability, where 100% represented the treatments with vehicle (0.1% DMF or 0.1% DMSO). The cytotoxicity data from the cancer cell lines were acquired from three independent experiments (conducted in triplicate) using cells from different passages. The IC50 values were calculated from viability curves. The results are presented as arithmetic means±standard error of the mean (S.E.). The significance of the differences between the results was assessed by the ANOVA analysis with p<0.05 considered to be significant (QC Expert 3.2, Statistical software, TriloByte Ltd., Pardubice, Czech Republic).

[9] = test system: λ-carrageenan-induced hind paw edema; assay: Carrageenan-induced hind paw edema; type: in vivo, Wistar-SPF rats; conditions: i.p., dose equivalent in gold to 10 mg/kg Auranofin
Method: Wistar-SPF (6–8 weeks male) rats were obtained from AnLab, Ltd. (Prague, Czech Republic). The animals were kept in plexiglass cages at the constant temperature of 22±1°C and relative humidity of 55±5% for at least 1 week before the experiment. They were given food and water ad libitum. All the experimental procedures were performed according to the National Institutes of Health (NIH) Guide for the Care and Use of Laboratory Animals. In addition, all the tests were conducted under the guidelines of the International Association for the Study of Pain [61]. After a one-week adaptation period, male Wistar-SPF rats (200–250 g) were randomly assigned to five groups (n = 7) of the animals in the study. The first, control group, received 25% DMSO (v/v in water, intraperitoneal; i.p.). The next three groups were pretreated with complexes 2, 4 and 5, and involved into the carrageenan-treatment. The fifth group was treated with a non-steroidal anti-inflammatory drug Indomethacin (5 mg/kg), which served as a positive control group (Indomethacin + carrageenan).
The carrageenan-induced hind paw edema model was used for the determination of anti-inflammatory activity. Animals were i.p. pretreated with complexes 2, 4, and 5 (the dosages of the individual complexes were adjusted to contain the same amount of gold as in 10 mg/kg dose of Auranofin), Indomethacin (5 mg/kg), or 25% DMSO (v/v in water) 30 min prior to the injection of 1% λ-carrageenan solution (50 µL) into the plantar side of right hind paws of the rats. The paw volume was measured immediately after the carrageenan injection (this value was set-up as baseline value for the hind paw volume) and during the next 6 h after the administration of the edematogenic agent using a plethysmometer (model 7159, Ugo Basile, Varese, Italy). The degree of swelling was evaluated as a percentage of the change of the volume of the right hind paw after the carrageenan treatment from the baseline volume. A non-steroidal anti-inflammatory drug Indomethacin was used as a positive control and the obtained data were also compared with the previously reported profile of antiedematous activity for Auranofin [38]. After 6 h, the animals were sacrificed and the edematous feet were dissected, the tissue from the plantar parts was extracted, fixed and stained by a standard hematoxylin/eosin (HE) staining for cytological evaluation of polymorphonuclear cells infiltration.
as §4

[10] = test system: primary culture of human hepatocytes (HEP220); assay: MTT in vitro cytotoxicity, primary human hepatocytes; type: cell-based; conditions: 24 h treatment, MTT; read-out: IC50±S.E., HEP220 (healthy human hepatocytes)
Method: as §5

[11] = test system: G361 malignant melanoma cells; assay: MTT in vitro cytotoxicity, G361; type: cell-based, human; conditions: 24 h treatment, read-out: IC50±S.E., G361
Method: as §5

[12] = test system: HeLa cervix epitheloid carcinoma cells; assay: MTT in vitro cytotoxicity, HeLa; type: cell-based, human; conditions: 24 h treatment, read-out: IC50±S.E., HeLa
Method: as §5

HOS osteosarcoma cells = assay: MTT in vitro cytotoxicity, HOS; type: cell-based, human; conditions: 24 h treatment, read-out: IC50±S.E., HOS
Method: as §5

SMILES	effect on LPS-induced TNF-α secretion [1]	IC50 [3] [µM]	IC50 [4] [µM]	IC50 [5] [µM]	IC50 [6] [µM]	IC50 [7] [µM]	IC50 [8] [µM]	IC50 [10] [µM]	IC50 [11] [µM]	IC50 [12] [µM]	IC50 (HOS osteosarcoma cells) [µM]	further results
c1ccc(COc2ncnc3cc[nH]c23)cc1 [HL4, 6-benzyloxy-9-deazapurine]	stimulate the production											
c1ccc(P(c2ccccc2)c2ccccc2)cc1 [PPh3, triphenylphosphine]	none of the reference compounds, such as AuCl, HLn, [AuCl(PPh3)] and PPh3, exhibited any expected effect											effect on LPS-induced IL-1β secretion [2]: decreased the production of IL-1β by a manner comparable to free ligands; level of IL-1β diminished by [2]: ~32%
CC(C)Oc1ncnc2cc[nH]c12 [HL2, 6-isopropyloxy-9-deazapurine]	stimulate the production											
[Au][n]1ccc2ncnc(OCc3ccccc3)c21.c1ccc(P(c2ccccc2)c2ccccc2)cc1 [complex 4]		> 20	4.6 ± 0.2	3.5 ± 0.2	4 ± 0.9	5.1 ± 0.3	1.7 ± 0.1	23.7 ± 2.1	3.5 ± 0.2	14.3 ± 0.2	1.8 ± 0.3	overall antiedematous / anti-inflammatory activity [9]: significant anti-inflammatory effects; antiedematous activity profile up to 180 min after carrageenan ([9]; 30 min before carrageenan): very similar pharmacological profiles of complexes 2 and 4 with the reference drug Indomethacin
[Cl][Au].c1ccc(P(c2ccccc2)c2ccccc2)cc1 [[AuCl(PPh3)], reference compound]	none of the reference compounds, such as AuCl, HLn, [AuCl(PPh3)] and PPh3, exhibited any expected effect											
c1ccc(CCOc2ncnc3cc[nH]c23)cc1 [HL5, 6-phenethyloxy-9-deazapurine]	stimulate the production											
CCOc1ncnc2cc[n]([Au])c12.c1ccc(P(c2ccccc2)c2ccccc2)cc1 [complex 1]		20.7 ± 0.1	4.8 ± 0.1	3.5 ± 0.1	3.1 ± 0.2	5.2 ± 0.3	0.8 ± 0.1	24 ± 1.9	3.5 ± 0.2	22 ± 0.6	3.3 ± 0.1	level of IL-1β diminished by [2]: 32%
[Au][n]1ccc2ncnc(OCC3CCCO3)c21.c1ccc(P(c2ccccc2)c2ccccc2)cc1 [complex 3]		21.4 ± 0.2	4.6 ± 0.3	21 ± 0.7	2.2 ± 0.2	5.3 ± 0.4	1 ± 0.1	24.1 ± 2.4	3.4 ± 0.2	20.7 ± 0.2	4 ± 0.6	
N.N.[Cl][Pt][Cl] [cisplatin, reference compound]		> 50	11.5 ± 0.5	26.9 ± 1.2	17.9 ± 1.2	27 ± 1.5		> 50	5.3 ± 0.2	> 50	20.5 ± 0.1	resistance factor (RF), IC50(A2780R)/IC50(A2780) ([7]; ratio resistant/sensitive cells): 2.4
